Literature values in patent US6645930B1, “Clean room wipes for neutralizing caustic chemicals” (EKC Technology, Inc., priority 2000, dated 2003).

Legend:
[1] = for pKa3: third ionization constant; for pKa1: first ionization constant
[2] = at 25° C.

O=C(O)CC(O)(CC(=O)O)C(=O)O [Citric, citric acid]
pKa3 [1]: 6.9

O=C(O)c1cc(O)c(O)c(O)c1 [Gallic, gallic acid]
pKa1 [1]: 4.2 | pKa3 [1]: 8.9

CC(O)CO (stereo not drawn) [propylene glycol]
vapor pressure [2]: 0.02 kPascal

O=C(O)[C@H](O)[C@@H](O)[C@H](O)[C@H](O)CO [Gluconic, gluconic acid]
pKa1 [1]: 3.5 | pKa2 ([1]; second ionization constant): 4.7
